Earlier results on 26 molecules are cited in US20080124279A1, “Colonic delivery using Zn/pectin beads with a Eudragit coating” (priority 2006, published 2008).

Targets include VIM-2 (Escherichia coli, UniProt Q5U7L7); IMP-1 (Serratia marcescens, UniProt P52699); L-1(wt) (Stenotrophomonas maltophilia, UniProt P52700).

Where two headings read alike, the source gives them in different places. A value given as a limit tells only on which side of the number the result lay.

Chain of IMP-1 (P52699 19-246 limits assumed): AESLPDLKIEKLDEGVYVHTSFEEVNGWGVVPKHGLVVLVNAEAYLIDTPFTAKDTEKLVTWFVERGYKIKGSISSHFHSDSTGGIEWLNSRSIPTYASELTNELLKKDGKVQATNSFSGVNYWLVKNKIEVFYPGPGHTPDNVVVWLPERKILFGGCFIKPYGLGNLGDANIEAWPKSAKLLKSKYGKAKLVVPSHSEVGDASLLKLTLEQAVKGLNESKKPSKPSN
Chain of L-1(wt) (P52700 34-290): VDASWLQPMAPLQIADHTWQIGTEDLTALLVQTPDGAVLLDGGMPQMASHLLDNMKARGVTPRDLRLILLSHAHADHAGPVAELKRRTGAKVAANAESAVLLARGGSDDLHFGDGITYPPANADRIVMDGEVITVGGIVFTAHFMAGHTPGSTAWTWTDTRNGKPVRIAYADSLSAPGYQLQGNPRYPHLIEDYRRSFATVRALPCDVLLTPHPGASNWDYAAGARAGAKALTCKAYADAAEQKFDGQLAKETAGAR

For `O=C(Cc1cccs1)N[C@@H]1C(=O)N2C(C(=O)[O-])=C(C[n+]3ccccc3)CS[C@H]12` [Cephaloridin], the Kcat was 140 s⁻¹ on VIM-2, 53 s⁻¹ at IMP-1 and 16 s⁻¹ in the data set on FEZ-1. Moreover, the Km was 50 µM on VIM-2 (read-out: Km), 22 µM on IMP-1 (read-out: Km) and 1000 µM in the data set with FEZ-1.
With `CC1(C)S[C@@H]2[C@H](NC(=O)[C@H](NC(=O)N3CCN(S(C)(=O)=O)C3=O)c3ccccc3)C(=O)N2[C@H]1C(=O)O` [Mezlocillin], on VIM-2, the Kcat is 200 s⁻¹ and the Km is 125 µM.
As to `C[C@@H](O)[C@H]1C(=O)N2C(C(=O)O)=C(S[C@@H]3CN[C@H](C(=O)N(C)C)C3)[C@H](C)[C@H]12` [Meropenem], at VIM-2, the Kcat is 5 s⁻¹ and the Km was 2 µM. Further, at L-1(wt), the Kcat is 157 s⁻¹ and the Km was 15 µM.
For `CC(C)(O/N=C(\C(=O)N[C@@H]1C(=O)N2C(C(=O)[O-])=C(C[n+]3ccccc3)CS[C@H]12)c1csc(N)n1)C(=O)O` [Ceftazidin], the Kcat on VIM-2 was 3.6 s⁻¹; at IMP-1 it was 8 s⁻¹. The Km was 72 µM at VIM-2 (read-out: Km) and 44 µM on IMP-1 (read-out: Km).
Regarding `CO/N=C(\C(=O)N[C@@H]1C(=O)N2C(C(=O)O)=C(COC(N)=O)CS[C@H]12)c1ccco1` [Cefuroxin], the Kcat on VIM-2 was 8 s⁻¹. In addition, the Km on VIM-2 (read-out: Km) was 20 µM.
On to `CO/N=C(\C(=O)N[C@@H]1C(=O)N2C(C(=O)[O-])=C(C[N+]3(C)CCCC3)CS[C@H]12)c1csc(N)n1` [Cefepim], for which the Kcat on VIM-2 is >40 s⁻¹; on IMP-1, 7 s⁻¹; in the data set on FEZ-1, >6 s⁻¹. The Km on VIM-2 (read-out: Km) is > 400 µM; at IMP-1 (read-out: Km) it was 11 µM; in the data set on FEZ-1 it was > 1000 µM.
As to `NC(=O)OC[C@@H]1[C@H](NC(=O)/C(=N\OCC(=O)O)c2csc(N)n2)C(=O)N1S(=O)(=O)O` [Carumonam], on IMP-1, the Kcat was >0.01 s⁻¹ and the Km is > 1000 µM.
With `C[C@H]1[C@H](NC(=O)/C(=N\OC(C)(C)C(=O)O)c2csc(N)n2)C(=O)N1S(=O)(=O)O` [Aztreonam], on VIM-2, the Kcat was <0.01 s⁻¹ and the Km was > 1000 µM. Besides, on IMP-1, the Kcat is >0.01 s⁻¹ and the Km is > 1000 µM.
As to `CC1(C)S[C@@H]2[C@H](NC(=O)[C@H](C(=O)O)c3ccsc3)C(=O)N2[C@H]1C(=O)O` [Ticarcillin], the Kcat at VIM-2 was 180 s⁻¹; at IMP-1, 1.1 s⁻¹; with FEZ-1, >65 s⁻¹. In addition, the Km is 125 µM at VIM-2, 740 µM on IMP-1 and > 5000 µM with FEZ-1.
In the case of `CC1(C)S[C@@H]2[C@H](NC(=O)[C@H](N)c3ccccc3)C(=O)N2[C@H]1C(=O)O` [Ampicillin], the Km on VIM-2 is 90 µM; at IMP-1, 200 µM; at L-1(wt), 55 µM; with FEZ-1 it was > 5000 µM. The Kcat at IMP-1 is 950 s⁻¹; on L-1(wt), 520 s⁻¹; in the data set with FEZ-1, >5.5 s⁻¹.
Take `CO[C@@]1(NC(=O)C(C(=O)O)c2ccc(O)cc2)C(=O)N2C(C(=O)O)=C(CSc3nnnn3C)CO[C@@H]21` (stereo partly drawn) [Moxalactam]: on VIM-2, the Kcat was 90 s⁻¹ and the Km was 55 µM. In the data set on FEZ-1, the Kcat is 3 s⁻¹ and the Km is 18 µM.
Take `O=C(Cc1cccs1)N[C@@H]1C(=O)N2C(C(=O)O)=C(/C=C/c3ccc([N+](=O)[O-])cc3[N+](=O)[O-])CS[C@H]12` [Nitrocefin]: the Kcat is 770 s⁻¹ on VIM-2, 63 s⁻¹ on IMP-1, 41 s⁻¹ at L-1(wt) and 90 s⁻¹ in the data set with FEZ-1. In addition, the Km on VIM-2 is 18 µM; at L-1(wt), 4 µM; with FEZ-1 it was 100 µM.
With `CCN1CCN(C(=O)N[C@@H](C(=O)N[C@@H]2C(=O)N3[C@@H]2SC(C)(C)[C@@H]3C(=O)O)c2ccccc2)C(=O)C1=O` [Pipericillin], the Kcat is 300 s⁻¹ on VIM-2 and 50 s⁻¹ with FEZ-1. For the same molecule, the values for the Km on VIM-2 (read-out: Km) and with FEZ-1 were 125 µM and 4200 µM, respectively.
Take `C[C@@H](O)[C@H]1C(=O)N2C(C(=O)O)=C(SCCN=CN)C[C@H]12` [Imipenem]: the Km was 9 µM at VIM-2, 39 µM at IMP-1 and 57 µM on L-1(wt).
For `CC1(C)S[C@@H]2[C@H](NC(=O)Cc3ccccc3)C(=O)N2[C@H]1C(=O)O` [Benzylpenicillin], the Kcat on VIM-2 was 56 s⁻¹; at IMP-1, 320 s⁻¹; at L-1(wt), 600 s⁻¹; in the data set on FEZ-1 it was 70 s⁻¹. Also, the Km at VIM-2 was 49 µM; at IMP-1, 520 µM; at L-1(wt) it was 38 µM; with FEZ-1, 590 µM.
Regarding `C[C@@H](O)[C@H]1C(=O)N2C(C(=O)[O-])=C(SC3Cn4cnc[n+]4C3)[C@H](C)[C@H]12` (stereo partly drawn) [Biapenem], the Kcat on VIM-2 was 8.5 s⁻¹; on IMP-1 it was 160 s⁻¹; at L-1(wt), 134 s⁻¹; in the data set on FEZ-1, 70 s⁻¹. Moreover, the Km was 15 µM on VIM-2, 28 µM on IMP-1, 32 µM at L-1(wt) and > 1000 µM with FEZ-1.
`O=C(O)[C@H]1/C(=C/CO)O[C@@H]2CC(=O)N21` [Clavulanic Acid]: on L-1(wt), the Kcat was 11 s⁻¹ and the Km was 22 µM. Also, in the data set with FEZ-1, the Kcat is <0.01 s⁻¹ and the Km is > 1000 µM.
Turning to `CO/N=C(\C(=O)N[C@@H]1C(=O)N2C(C(=O)O)=C(COC(C)=O)CS[C@H]12)c1csc(N)n1` [Cefotaxim], the Kcat is 70 s⁻¹ on VIM-2, 1.3 s⁻¹ on IMP-1, 270 s⁻¹ at L-1(wt) and 165 s⁻¹ in the data set on FEZ-1. The Km was 12 µM on VIM-2 (read-out: Km), 4 µM on IMP-1 (read-out: Km), 10 µM at L-1(wt) and 70 µM in the data set with FEZ-1.
For the molecule `CC(=O)OCC1=C(C(=O)O)N2C(=O)[C@@H](NC(=O)Cc3cccs3)[C@H]2SC1` [Cephalothin], the Kcat is 130 s⁻¹ at VIM-2, 48 s⁻¹ at IMP-1 and 82 s⁻¹ on L-1(wt). The Michaelis constant (Km) on VIM-2 is 11 µM; on L-1(wt) it was 8.9 µM.
For `CC1(C)S[C@@H]2[C@H](NC(=O)C(C(=O)O)c3ccccc3)C(=O)N2[C@H]1C(=O)O` (stereo partly drawn) [Cabenicillin], the results for the Kcat on VIM-2 and in the data set with FEZ-1 were 185 s⁻¹ and 35 s⁻¹, respectively. The Km was 205 µM on VIM-2 (read-out: Km) and 1600 µM in the data set on FEZ-1.
With `CO[C@@]1(NC(=O)Cc2cccs2)C(=O)N2C(C(=O)O)=C(COC(N)=O)CS[C@@H]21` [Cefoxitin], at VIM-2, the Kcat was 15 s⁻¹ and the Km is 13 µM. In addition, on L-1(wt), the Kcat was 1 s⁻¹ and the Km was 3 µM.
As for `CC1(C)S[C@@H]2[C@H](NC(=O)[C@H](NC(=O)N3CCNC3=O)c3ccccc3)C(=O)N2[C@H]1C(=O)O` [Azlocillin], on VIM-2, the Kcat was 200 s⁻¹ and the Km was 200 µM.
Consider `CO/N=C(\C(=O)N[C@@H]1C(=O)N2C(C(=O)[O-])=C(C[n+]3cccc4c3CCC4)CS[C@H]12)c1csc(N)n1` [Cefpirom], for which the Kcat on VIM-2 is 180 s⁻¹; on IMP-1, 9 s⁻¹. Moreover, the Km is 180 µM at VIM-2 (read-out: Km) and 14 µM at IMP-1 (read-out: Km).
Regarding `CC1(C)[C@H](C(=O)O)N2C(=O)C[C@H]2S1(=O)=O` [Sulbactam], the Kcat on VIM-2 is 23 s⁻¹. Besides, the Km on VIM-2 (read-out: Km) was 320 µM.
Consider `CO[C@@]1(NC(=O)C(C(=O)O)c2ccsc2)C(=O)N2[C@@H](C(=O)O)C(C)(C)S[C@@H]21` (stereo partly drawn) [Timocillin], for which the Kcat at VIM-2 is 7.7 s⁻¹. For the same molecule, the results for the Michaelis constant (Km) on VIM-2 (read-out: Km) and on IMP-1 (read-out: Km) were 390 µM and > 2000 µM, respectively.
As for `C[C@]1(Cn2ccnn2)[C@H](C(=O)O)N2C(=O)C[C@H]2S1(=O)=O` [Tazobactam], the results for the Kcat on VIM-2 and in the data set on FEZ-1 were 28 s⁻¹ and 40 s⁻¹, respectively. Besides, the Km on VIM-2 was 875 µM; in the data set on FEZ-1, 700 µM.

One may read the Km as the concentration of substrate that gives half-maximal velocity.
